Source: US9376391B2, “Difluoromethyl-nicotinic-tetrahydronaphthyl carboxamides as fungicides” (BAYER CROPSCIENCE AKTIENGESELLSCHAFT, priority 2012, dated 2016)

Legend:
[1] = log P by HPLC on reversed phase columns (EEC directive 79/831 Annex V.A8); type: physicochemical; conditions: HPLC/LC-MS at pH 2.7, 0.1% formic acid in water / acetonitrile, gradient 10% to 95%
Uromyces appendiculatus = assay: In vivo preventive test on Uromyces appendiculatus (bean rust); conditions: preventive spray, bean plants, grading 11 days after contamination
Method: In Vivo Preventive Test on Uromyces appendiculatus (Bean Rust) […] Bean plants (“Saxa” variety), sown in starter cups on a 50/50 peat soil-pozzolana substrate and grown at 24° C., are treated at the 2-leaf stage (9 cm height) by spraying with the active ingredient prepared as described above. Plants, used as controls, are treated with the mixture of acetone/tween/DMSO/water not containing the active material. After 24 hours, the plants are contaminated by spraying the leaves with an aqueous suspension of Uromyces appendiculatus spores (150 000 spores per ml). The spores are collected from infected plants and are suspended in water containing 2.5 ml/1 of Tween 80 at 10%. The contaminated bean plants are incubated for 24 hours at 20° C. and at 100% relative humidity, and then for 10 days at 20° C. and at 70-80% relative humidity. Grading (% of efficacy) is carried out 11 days after the contamination, in comparison with the control plants.

Puccinia recondita = assay: In vivo preventive test on Puccinia recondita (brown rust on wheat); conditions: wheat, spray, graded 12 days after contamination vs control plants
Method: In Vivo Preventive Test on Puccinia recondita (Brown Rust on Wheat) […] Wheat plants (“Scipion” variety), sown in starter cups on a 50/50 peat soil-pozzolana substrate and grown at 22° C., are treated at the 1-leaf stage (10 cm height) by spraying with the active ingredient prepared as described above. Plants, used as controls, are treated with the mixture of acetone/tween/DMSO/water not containing the active material. After 24 hours, the plants are contaminated by spraying the leaves with an aqueous suspension of Puccinia recondita spores (100 000 spores per ml). The spores are collected from an infected plant and are suspended in water containing 2.5 ml/1 of Tween 80 at 10%. The contaminated wheat plants are incubated for 24 hours at 20° C. and at 100% relative humidity, and then for 10 days at 20° C. and at 70-80% relative humidity. Grading (% of efficacy) is carried out 12 days after the contamination, in comparison with the control plants.

Sphaerotheca fuliginea = assay: In vivo preventive test on Sphaerotheca fuliginea (powdery mildew on cucurbits); conditions: 500 ppm, preventive spray, gherkin plants, grading 12 days after contamination
Method: In Vivo Preventive Test on Sphaerotheca fuliginea (Powdery Mildew on Cucurbits)
The active ingredients tested are prepared by homogenization in a mixture of acetone/tween/DMSO and then diluted with water to obtain the desired active material concentration.
Gherkin plants (“Vert petit de Paris” variety), sown in starter cups on a 50/50 peat soil-pozzolana substrate and grown at 24° C., are treated at the Z11 cotyledon stage by spraying with the active ingredient prepared as described above. Plants, used as controls, are treated with the mixture of acetone/tween/DMSO/water not containing the active material.
After 24 hours, the plants are contaminated by spraying the cotyledons with an aqueous suspension of Sphaerotheca fuliginea spores (100 000 spores per ml). The spores are collected from infected plants. The contaminated gherkin plants are incubated at about 20° C. and at 70-80% relative humidity.
Grading (% of efficacy) is carried out 12 days after the contamination, in comparison with the control plants.

[2] = Table 2, amines of formula (III-a)

| SMILES | logP^[a] ([1]; Table 1, formula (I)) | Eff. % (Puccinia recondita; dose 500 ppm) [%] | further results |
| --- | --- | --- | --- |
| CC1CC(C(C)(C)C)c2cccc(NC(=O)c3cccnc3C(F)F)c21 (mixture of isomers) [Example 93] | 3.94^[a] | – | – |
| CC1CC(C)(C)c2cccc(NC(=O)c3ccc(Cl)nc3C(F)F)c21 (racemic) [Example 18] | 3.99^[a] | 89 | – |
| CC(C)CC1CCc2c(NC(=O)c3cccnc3C(F)F)cccc21 (racemic) [Example 41] | 3.94^[a] | 98 | Eff. % (Uromyces appendiculatus; 500 ppm): 100% |
| Cc1cnc(C(F)F)c(C(=O)Nc2cccc3c2CC(C(C)C)C3(C)C)c1 (racemic) [Example 44] | – | 83 | Eff. % (Uromyces appendiculatus; 500 ppm): 93% |
| CC1CC2(CC2)c2cccc(NC(=O)c3ccc(Cl)nc3C(F)F)c21 (racemic) [Example 58] | 3.73^[a] | 81 | Eff. % (Uromyces appendiculatus; 500 ppm): 95% |
| CON=C1CCc2c(NC(=O)c3cccnc3C(F)F)cccc21 [Example 5] | 2.15^[a] | – | – |
| CCON=C1CCc2c(NC(=O)c3cccnc3C(F)F)cccc21 [Example 8] | 2.54^[a] | 78 | – |
| CC1CC(C)(C)c2c(Cl)ccc(NC(=O)c3cccnc3C(F)F)c21 (stereo not shown) [Example 16] | 3.73^[a] | – | – |
| CC1CC(C)(C)c2c(F)ccc(NC(=O)c3ccc(Cl)nc3C(F)F)c21 (stereo not shown) [Example 19] | 4.09^[a] | 100 | Eff. % (Uromyces appendiculatus; 500 ppm): 79% |
| CC1CC(C)(C)c2cccc(NC(=O)c3c(C(F)F)ccnc3C(F)F)c21 (stereo not shown) [Example 28] | 3.79^[a] | – | – |
| CCC1Cc2c(NC(=S)c3cc(C)cnc3C(F)F)cccc2C1(C)C (stereo not shown) [Example 70, 2-(difluoromethyl)-N-(2-ethyl-1,1-dimethyl-2,3-dihydro-1H-inden-4-yl)-5-methylpyridine-3-carbothioamide] | – | – | chromatographic logP ([1]; reversed phase HPLC columns, Table 1, formula (I)): 4.41; Eff. % (Uromyces appendiculatus; 100 ppm): 100%; Eff. % (Puccinia recondita; dose 100 ppm): 98% |
| CC1c2c(cccc2NC(=O)c2ccc(Cl)nc2C(F)F)CC1(C)C (stereo not shown) [Example 87] | 3.96^[a] | – | – |
| CCCC1CC(C)c2c(NC(=O)c3cccnc3C(F)F)cccc21 (stereo not shown) [Example 89] | 3.79^[a] | – | – |
| CC1(C)CC(C(F)F)c2c(NC(=O)c3cccnc3C(F)F)cccc21 (stereo not shown) [Example 94] | 3.15^[a] | – | – |
| CC1(C)CC(C(Cl)Cl)c2c(NC(=O)c3cccnc3C(F)F)cccc21 (stereo not shown) [Example 96] | 3.97^[a] | – | – |
| O=C(Nc1cccc2c1C(=C(Cl)Cl)CC2)c1cccnc1C(F)F [Example 97] | 2.96^[a] | – | – |
| CC1CC(=CCl)c2cccc(NC(=O)c3cccnc3C(F)F)c21 (stereo not shown) [Example 98] | 3.71^[a] | – | – |
| CC1CC(=C(Cl)Cl)c2cccc(NC(=O)c3cccnc3C(F)F)c21 (stereo not shown) [Example 99] | 3.13^[a] | – | – |
| CC1CC(C)(C)c2ccc(F)c(NC(=O)c3cccnc3C(F)F)c21 (stereo not shown) [Example 100] | 3.26^[a] | – | – |
| Cl.Nc1cccc2c1C(=C(Cl)Cl)CC2 [III-a-3] | – | – | logP^[a] [1, 2]: 3.42^[a] |
| CC1CC(=C(Cl)Cl)c2cccc(N)c21.Cl (stereo not shown) [III-a-4] | – | – | logP^[a] [1, 2]: 3.60^[a] |
| CC(C)(C)CC1CC(C)(C)c2cccc(N)c21 (stereo not shown) [III-a-6] | – | – | logP^[a] [1, 2]: 4.98^[a] |
| CC1(C)CC(C(Cl)Cl)c2c(N)cccc21 (stereo not shown) [III-a-7] | – | – | logP^[a] [1, 2]: 4.39^[a] |
| CC(C)(C)CC1CCc2cccc(N)c21.Cl (stereo not shown) [III-a-8] | – | – | logP^[a] [1, 2]: 4.04^[a] |
| CC1(C)CC(C(F)F)c2c(N)cccc21 (stereo not shown) [III-a-9] | – | – | logP^[a] [1, 2]: 2.75^[a] |
| CC1CC(C)(C)c2ccc(F)c(N)c21 (stereo not shown) [III-a-10] | – | – | logP^[a] [1, 2]: 3.71^[a] |

Continued, in another order:

| logP^[a] ([1]; Table 1, formula (I)) | SMILES | Eff. % (Puccinia recondita; dose 500 ppm) [%] | further results |
| --- | --- | --- | --- |
| 4.36^[a] | CCC1(C)CC(C)c2c(NC(=O)c3ccc(Cl)nc3C(F)F)cccc21 (mixture of isomers) [Example 83] | – | Eff. % (Uromyces appendiculatus; 100 ppm): 72%; Eff. % (Puccinia recondita; dose 100 ppm): 83% |
| 2.77^[a] | CC1OC(C)(C)c2cccc(NC(=O)c3ccc(Cl)nc3C(F)F)c21 (racemic) [Example 24] | 89 | Eff. % (Uromyces appendiculatus; 500 ppm): 100% |
| 4.77^[a] | CC(C)C1Cc2c(NC(=O)c3ccc(Cl)nc3C(F)F)cccc2C1(C)C (racemic) [Example 45] | 89 | Eff. % (Uromyces appendiculatus; 500 ppm): 88% |
| 2.99^[a] | CCON=C1CC(C)c2c(NC(=O)c3cc(C)cnc3C(F)F)cccc21 (racemic) [Example 50] | 94 | Eff. % (Uromyces appendiculatus; 500 ppm): 100% |
| 3.46^[a] | CCCCON=C1CC(C)c2c(NC(=O)c3cc(C)cnc3C(F)F)cccc21 (racemic) [Example 53] | – | – |
| 3.31^[a] | Cc1cnc(C(F)F)c(C(=O)Nc2cccc3c2C(C)CC32CC2)c1 (racemic) [Example 54] | – | – |
| 4.06^[a] | CC1CC(C)(C)c2cccc(NC(=O)c3cc(Cl)cnc3C(F)F)c21 (racemic) [Example 55] | 72 | – |
| 3.68^[a] | Cc1cnc(C(F)F)c(C(=S)Nc2cccc3c2C(C)CC32CC2)c1 (racemic) [Example 68] | – | Eff. % (Puccinia recondita; dose 100 ppm): 100% |
| 3.52^[a] | CCC1OC(CC)(CC)c2cccc(NC(=O)c3cc(C)cnc3C(F)F)c21 (racemic) [Example 72] | – | – |
| 2.64^[a] | CCC1OC(C)(C)c2cccc(NC(=O)c3cc(C)cnc3C(F)F)c21 (racemic) [Example 73] | – | Eff. % (Puccinia recondita; dose 100 ppm): 78% |
| 3.09^[a] | CCC1OC(C)(C)c2cccc(NC(=O)c3ccc(Cl)nc3C(F)F)c21 (racemic) [Example 74] | – | Eff. % (Puccinia recondita; dose 100 ppm): 72% |
| 3.00^[a] | Cc1cnc(C(F)F)c(C(=O)Nc2cccc3c2C(C(C)C)OC3(C)C)c1 (racemic) [Example 75] | – | – |
| 2.01^[a] | CC1(C)OCc2c(NC(=O)c3cccnc3C(F)F)cccc21 [Example 17] | 100 | Eff. % (Uromyces appendiculatus; 500 ppm): 100% |
| 3.55^[a] | Cc1cnc(C(F)F)c(C(=O)Nc2cccc3c2C(C)CC3(C)C)c1 (stereo not shown) [Example 21] | 72 | Eff. % (Uromyces appendiculatus; 500 ppm): 88% |
| 2.37^[a] | Cc1cnc(C(F)F)c(C(=O)Nc2cccc3c2C(C)OC3(C)C)c1 (stereo not shown) [Example 22] | 83 | – |
| 3.15^[a] | CCC1(CC)OC(C)c2c(NC(=O)c3cc(C)cnc3C(F)F)cccc21 (stereo not shown) [Example 26] | – | – |
| 2.61^[a] | CON=C1CC(C)c2c(NC(=O)c3cc(C)cnc3C(F)F)cccc21 (stereo not shown) [Example 29] | – | – |
| 3.79^[a] | Cc1cnc(C(F)F)c(C(=O)Nc2cccc3c2C(C)C(C)C3(C)C)c1 (stereo not shown) [Example 35] | 93 | – |
| 3.35^[a] | Cc1cnc(C(F)F)c(C(=O)Nc2cccc3c2CC(C)(C)C3)c1 [Example 48] | – | – |
| 4.39^[a] | CCC1(CC)Cc2c(NC(=O)c3cc(C)cnc3C(F)F)cccc2C1C (stereo not shown) [Example 61] | 78 | – |
| 3.65^[a] | Cc1cnc(C(F)F)c(C(=O)Nc2cccc3c2CC(C)(C)C3C)c1 (stereo not shown) [Example 63] | 83 | – |
| 4.04^[a] | CC1c2cccc(NC(=O)c3ccc(Cl)nc3C(F)F)c2CC1(C)C (stereo not shown) [Example 64] | 98 | Eff. % (Sphaerotheca fuliginea): 94%; Eff. % (Uromyces appendiculatus; 500 ppm): 84% |
| 5.11^[a] | CC(C)C1Cc2c(NC(=S)c3ccc(Cl)nc3C(F)F)cccc2C1(C)C (stereo not shown) [Example 66] | – | Eff. % (Uromyces appendiculatus; 100 ppm): 85%; Eff. % (Puccinia recondita; dose 100 ppm): 98% |
| 4.74^[a] | Cc1cnc(C(F)F)c(C(=S)Nc2cccc3c2CC(C(C)C)C3(C)C)c1 (stereo not shown) [Example 67] | – | Eff. % (Uromyces appendiculatus; 100 ppm): 100%; Eff. % (Puccinia recondita; dose 100 ppm): 89% |
| 3.59^[a] | Cc1cnc(C(F)F)c(C(=O)Nc2cccc3c2C(C)C(C)(C)C3)c1 (stereo not shown) [Example 86] | – | – |
| 3.08^[a] | CC1(C)CCc2c(NC(=O)c3cccnc3C(F)F)cccc21 [Example 92] | – | – |
| 4.54^[a] | CC(C)(C)CC1CC(C)(C)c2cccc(NC(=O)c3cccnc3C(F)F)c21 (stereo not shown) [Example 95] | – | – |
